We go through 4 compounds from patent US9284325B2, “Spectinamides as anti-tuberculosis agents” (UNIVERSITY OF TENNESSEE RESEARCH FOUNDATION, priority 2009, dated 2016).

Values after ≈ are worked out from the molar mass of the structure shown. Like-named read-outs stand apart in the source and are kept apart here.

The subject of one data set is M. tuberculosis H37Rv. Description: MIC determination by microbroth dilution, anti-tuberculosis activity. The note with it: for MIC: Mycobacterium tuberculosis, H37RV, 168 h, read-out: MIC. The format is cell-based, Mycobacterium tuberculosis. Background: Broth dilution looks for growth in wells or tubes with falling amounts of substance.
The subject of data set [1] is S. aureus 8325 or strain ATCC 29213. Description: MIC determination by microbroth dilution. It counts as cell-based, Staphylococcus aureus. Conditions: Staphylococcus aureus, ATCC29213; S. aureus 8325 or strain ATCC 29213 (for 1471-1544).
Data set [2] has as its system Strep. pyogenes ATCC 700294. Description: MIC determination by microbroth dilution. The format is cell-based, Streptococcus pyogenes. The note with it: Streptococcus pyogenes, ATCC700294, read-out: MIC S. pyogenes.
Data set [3] has as its system Strep. pneumoniae DAW27 or strain R6. Description: MIC determination by microbroth dilution. It counts as cell-based, Streptococcus pneumoniae. The note with it: Streptococcus pneumoniae; Strep. pneumoniae DAW27 or strain R6 (for 1443-1544); read-out: MIC S. pneumoniae.
Another data set deals with E. faecalis ATCC 33186. The data set can be described thus: MIC determination by microbroth dilution. It counts as cell-based, Enterococcus faecalis. Conditions: Enterococcus faecalis, ATCC33186.
A further data set relates to B. anthracis Sterne 34F2. The data set can be described thus: microbe, parasite or virus in culture. It counts as cell-based, Bacillus anthracis. Conditions: Bacillus anthracis, STERNE34F2, read-out: MIC B. anthracis 34F2.
Data set [4] relates to Burkholderia cepacia ATCC 25416. Description: MIC determination by microbroth dilution. The format is cell-based. Conditions: ATCC25416, read-out: MIC B. cepcia.
In data set [5] the test system is Proteus mirabilis ATCC 25933. The data set can be described thus: MIC determination by microbroth dilution. It counts as cell-based. Conditions: ATCC25933.
Data set [6] deals with Proteus vulgaris ATCC 33420. Description: MIC determination by microbroth dilution. It counts as cell-based. The note with it: ATCC33420.
Data set [7] relates to Klebsiella pneumoniae ATCC 33495. Description: MIC determination by microbroth dilution. The format is cell-based. Conditions: ATCC33495.
In data set [8] the test system is Acinetobacter baumannii ATCC 19606. The data set can be described thus: MIC determination by microbroth dilution. It counts as cell-based. Conditions: ATCC19606.
The next data set deals with P. aeruginosa PAO1. Description: MIC determination by microbroth dilution. It counts as cell-based, Pseudomonas aeruginosa. The note with it: Pseudomonas aeruginosa.
The subject of data set [9] is Strenotrophomonas maltophilia ATCC 13637. The data set can be described thus: MIC determination by microbroth dilution. The format is cell-based.
The next data set has as its system E. coli K12. Description: MIC determination by microbroth dilution. Conditions: Escherichia coli, K12. The format is cell-based, Escherichia coli.
In another data set the test system is E. coli K12 ΔtolC. The data set can be described thus: microbe, parasite or virus in culture. It counts as cell-based. Conditions: Escherichia coli, read-out: MIC E. coli K12 ΔtolC.
The next data set deals with E. coli ribosomes. The format is biochemical. The note with it: for IC50, 50% inhibition of luciferase biosynthesis in S30 assay: E. coli S30 transcription/translation assay.
Data set [10] in a line: Cytotoxicity, MTT cell proliferation assay. The note with it: African green monkey, Vero epithelial cells (ATCC CCL-81). A general note: Tetrazolium dyes change colour on reduction, which living cells bring about.
Data set [11] relates to Vero epithelial cells. Description: Cytotoxicity, MTT cell proliferation assay. The note with it: Vero IC50 / M. tuberculosis MIC.
Data set [12] has as its system Vero epithelial cells. The note with it: African green monkey.
Another data set relates to Borrelia burgdorferi. The note with it: spirochete Borrelia burgdorferi, Criswell et al.; cited from earlier work.
Data set [13] concerns protein synthesis in whole cell M. bovis BCG. It counts as cell-based.

As to `CN[C@@H]1[C@H](O)[C@H](NC)C2O[C@]3(O)C(OC2[C@H]1O)O[C@H](C)C[C@H]3NC(=O)Cc1c[nH]cn1` (stereo partly drawn) [Compound 1466, 3′-Dihydro-3′-deoxy-4(R)-(1H-imidazol-4-yl)acetylamino spectinomycin tetradrobromide], the MIC in the data set with M. tuberculosis H37Rv was 6.25 µg/mL (≈ 14.2 µM); in data set [1] it was > 200 µg/mL; in data set [2], 25 µg/mL (≈ 56.6 µM); in data set [3], 12.5 µg/mL (≈ 28.3 µM); against E. faecalis ATCC 33186, > 200 µg/mL; in the data set on B. anthracis Sterne 34F2 it was > 200 µg/mL. Further, the MIC (in data set [4]; in data set [5]; in [6]; in data set [7]; in [8]; against P. aeruginosa PAO1) was > 200 µg/mL throughout. The MIC in data set [9] was > 200 µg/mL; against E. coli K12, 100 µg/mL (≈ 227 µM); in the data set on E. coli K12 ΔtolC it was 50 µg/mL (≈ 113 µM). For the same compound, the “IC50, 50% inhibition of luciferase biosynthesis in S30 assay” value (shortened to “IC50, 50% inhibition”) in the data set with E. coli ribosomes came out at 0.57 µg/mL.

As for `CC[C@@H](CO)NCCN[C@@H](CC)CO` [Ethambutol], the IC50 at 72 h in [10] is 732 µg/mL (≈ 3580 µM). Further, the “therapeutic index (IC50 divided by the MIC)” value with Vero epithelial cells [11] was determined as 913.8.

On to `CN[C@@H]1[C@H](O)[C@H](NC)[C@H]2O[C@@]3(O)C(=O)C[C@@H](C)O[C@H]3O[C@@H]2[C@H]1O` [Spectinomycin, reference compound], for which the MIC in the data set with M. tuberculosis H37Rv came out at 25 µg/mL (≈ 75.2 µM); in data set [1], 25 µg/mL (≈ 75.2 µM); in data set [2] it was 25 µg/mL (≈ 75.2 µM); in [3] it was 50 µg/mL (≈ 150 µM); in the data set on E. faecalis ATCC 33186, 50 µg/mL (≈ 150 µM); in the data set with B. anthracis Sterne 34F2 it was 25 µg/mL (≈ 75.2 µM). The MIC in [4] is > 200 µg/mL; in data set [5], > 200 µg/mL; in data set [6], 50 µg/mL (≈ 150 µM); in [7] it was 50 µg/mL (≈ 150 µM); in data set [8], > 200 µg/mL; against P. aeruginosa PAO1 it was 100 µg/mL (≈ 301 µM). Further, the MIC is > 200 µg/mL in data set [9], 12.5 to 50 µg/mL (≈ 37.6 to 150 µM) with E. coli K12 and 12.5 µg/mL (≈ 37.6 µM) with E. coli K12 ΔtolC. The IC50 with E. coli ribosomes (E. coli S30 system, FIG. 4, read-out: concentration causing 50% reduction in the synthesis of luciferase) was found to be 900 nM. The “IC50, 50% inhibition” value in the data set with E. coli ribosomes came to 0.32 µg/mL. For the same compound, the “therapeutic index (IC50 divided by the MIC)” value with Vero epithelial cells [12] came out at 41.5. For the same compound, the “frequency at which resistance arises” value in the data set on Borrelia burgdorferi was 10^−6. The compound further showed an IC50 at 72 h in data set [10] of 1030 µg/mL (≈ 3100 µM).

On to `[H]/N=C(/N)N[C@H]1[C@H](O)[C@@H](O)[C@H](O[C@@H]2O[C@@H](C)[C@](O)(C=O)[C@H]2O[C@@H]2O[C@@H](CO)[C@H](O)[C@@H](O)[C@@H]2NC)[C@@H](N/C(N)=N\[H])[C@@H]1O` [Streptomycin, reference compound], for which the “Activity (MIC) of 1329 compared to streptomycin” value in the data set with M. tuberculosis H37Rv amounted to 0.2. The MIC was 0.4 µg/mL (≈ 0.688 µM) in [1]; 25 µg/mL (≈ 43 µM) in data set [2]; 12.5 µg/mL (≈ 21.5 µM) in [3]; 50 µg/mL (≈ 86 µM) in the data set with E. faecalis ATCC 33186; 0.8 µg/mL (≈ 1.38 µM) in the data set with B. anthracis Sterne 34F2; > 200 µg/mL in data set [4]. The MIC in data set [5] was 50 µg/mL (≈ 86 µM); in data set [6] it was 1.6 µg/mL (≈ 2.75 µM); in data set [7], > 200 µg/mL; in data set [8], > 200 µg/mL; in the data set on P. aeruginosa PAO1, 25 µg/mL (≈ 43 µM); in [9], 3.12 µg/mL (≈ 5.36 µM). The results for the MIC in the data set with E. coli K12 and in the data set on E. coli K12 ΔtolC were 0.8 µg/mL (≈ 1.38 µM) and 1.6 µg/mL (≈ 2.75 µM), respectively. Besides, the “inhibition of protein synthesis” value in data set [13] is given as “inhibited protein synthesis”. Also, in the data set with E. coli ribosomes, the “IC50, 50% inhibition” value is 0.27 µg/mL. For the same compound, the “therapeutic index (IC50 divided by the MIC)” value in the data set with Vero epithelial cells [12] is reported as 7680.5. In addition, in the data set on Borrelia burgdorferi, the “frequency at which resistance arises” value is ≥ 10^−7. The IC50 at 72 h in [10] amounted to 1540 µg/mL (≈ 2640 µM).
